# Results published in US10336739B2, “4-hydroxy-3-(heteroaryl)pyridine-2-one APJ agonists” (BRISTOL-MYERS SQUIBB COMPANY, priority 2015, dated 2019).
# Where two headings read alike, the source gives them in different places.
# Target: human APJ receptor (Homo sapiens (Human), UniProt P35414)
# Experiment: Intracellular cAMP accumulation assay (APJ hcAMP, HTRF)
# Type: cell-based
# Conditions: HEK293 cells stably expressing human APJ receptor, inhibition of forskolin-mediated cAMP production
# Method: Intracellular cAMP Accumulation Assay
# HEK293 cells stably expressing human APJ receptor were used to assess the activity of compounds. Cultured cells were detached and resuspended in the cAMP Homogeneous Time-Resolved Fluorescence (HTRF) assay buffer (Cisbio cat; #62AM4PEJ). The assay was performed in 384-well assay plates (Perkin-Elmer; cat #6008289) according to assay protocol provided by the manufacturer. Serial dilutions of a compound together with assay buffer containing […] and 2 μM forskolin were added to each well containing 5,000 cells and incubated for 30 minutes at room temperature. Subsequently, cAMP D2 reagent was added in the lysis buffer followed by the EuK antibody (Cisbio; cat #62AM4PEJ) and incubated for 60 min. The fluorescence emission ratio was measured using fluorometer. The intracellular cAMP concentrations (compound-stimulated inhibition of forskolin-mediated cAMP production) were calculated by extrapolation from a standard curve using known cAMP concentrations. The EC50 values were obtained by fitting the data to a sigmoidal concentration-response curve with variable slope.
# [1] = read-out: hAPJ cAMP EC50 Potency range
# [2] = read-out: hAPJ cAMP EC50 (nM) Potency range
# Chain of human APJ receptor (P35414 whole entry): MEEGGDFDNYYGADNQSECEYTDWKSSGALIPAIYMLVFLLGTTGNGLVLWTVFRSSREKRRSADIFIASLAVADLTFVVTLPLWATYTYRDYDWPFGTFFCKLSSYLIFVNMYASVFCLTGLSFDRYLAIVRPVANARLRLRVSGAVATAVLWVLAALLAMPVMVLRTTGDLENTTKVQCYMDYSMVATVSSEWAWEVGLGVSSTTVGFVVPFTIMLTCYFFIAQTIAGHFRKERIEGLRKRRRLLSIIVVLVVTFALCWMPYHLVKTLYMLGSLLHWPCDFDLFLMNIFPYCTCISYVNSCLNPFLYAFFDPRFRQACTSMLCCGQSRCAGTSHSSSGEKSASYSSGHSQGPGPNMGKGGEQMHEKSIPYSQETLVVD
Compound,EC50 [1] [nM],also measured
"CCCCc1nc(O)c(-c2nnc(CC(=O)OCC)o2)c(O)c1-c1c(OC)cccc1OC [Example 96, ethyl 2-{5-[6-butyl-5-(2,6-dimethoxyphenyl)-2,4-dihydroxypyridin-3-yl]-1,3,4-oxadiazol-2-yl}acetate]",10 to 100,–
"CCCCc1nc(O)c(-c2nnc(CC(=O)NCc3cc(C(C)C)no3)o2)c(O)c1-c1c(OC)cccc1OC [Example 272, 2-{5-[6-butyl-5-(2,6-dimethoxyphenyl)-2,4-dihydroxy-pyridin-3-yl]-1,3,4-oxadiazol-2-yl}-N-{[3-(propan-2-yl)-1,2-oxazol-5-yl]methyl} acetamide]",–,EC50 [2]: 0.01 to 10 nM
"CCOCc1nc(O)c(-c2nnc(Cc3ccc(Cl)cc3)o2)c(O)c1-c1c(O)cccc1OC (single isomer, unassigned) [Example 222, 3-{5-[(4-chlorophenyl)methyl]-1,3,4-oxadiazol-2-yl}-6-(ethoxymethyl)-5-(2-hydroxy-6-methoxyphenyl)pyridine-2,4-diol]",–,EC50 (read-out: Human APJ cAMP EC50 Potency range): 0.01 to 10 nM
"CCCCc1nc(O)c(-c2nnc(CC(=O)N(C)C)o2)c(O)c1-c1c(OC)cccc1OC [Example 182, 2-{5-[6-butyl-5-(2,6-dimethoxyphenyl)-2,4-dihydroxypyridin-3-yl]-1,3,4-oxadiazol-2-yl}-N,N-dimethylacetamide]",0.01 to 10,–
"CCCCc1nc(O)c(-c2nnc(Cc3nc(-c4ccccc4)sc3C)o2)c(O)c1-c1c(OC)cccc1OC [Example 84, 6-butyl-5-(2,6-dimethoxyphenyl)-3-{5-[(5-methyl-2-phenyl-1,3-thiazol-4-yl)methyl]-1,3,4-oxadiazol-2-yl}pyridine-2,4-diol]",0.01 to 10,–
"CCOCc1nc(O)c(-c2nnc(Cn3ccc(-c4ccccc4)n3)o2)c(O)c1-c1c(OC)cccc1OC [Example 128, 5-(2,6-dimethoxyphenyl)-6-(ethoxymethyl)-3-{5-[(3-phenyl-1H-pyrazol-1-yl)methyl]-1,3,4-oxadiazol-2-yl}pyridine-2,4-diol]",0.01 to 10,–
"CCCCc1nc(O)c(-c2nnc(CC(=O)NCc3ccccc3)o2)c(O)c1-c1c(OC)cccc1OC [Example 186, N-benzyl-2-{5-[6-butyl-5-(2,6-dimethoxyphenyl)-2,4-dihydroxypyridin-3-yl]-1,3,4-oxadiazol-2-yl}acetamide]",0.01 to 10,–
"CCCCc1nc(O)c(-c2nnc(CN(C)C(=O)c3ccccn3)o2)c(O)c1-c1c(OC)cccc1OC [Example 157, N-({5-[6-butyl-5-(2,6-dimethoxyphenyl)-2,4-dihydroxypyridin-3-yl]-1,3,4-oxadiazol-2-yl}methyl)-N-methylpyridine-2-carboxamide]",0.01 to 10,–
"CCCCc1nc(O)c(-c2nnc(C3(c4ccccc4)CC3)o2)c(O)c1-c1c(OC)cccc1OC [Example 13, 6-butyl-5-(2,6-dimethoxyphenyl)-3-[5-(1-phenylcyclopropyl)-1,3,4-oxadiazol-2-yl]pyridine-2,4-diol]",10 to 100,–
"CCCCc1nc(O)c(-c2nnc(C(c3ccc(F)cc3)N(C)C)o2)c(O)c1-c1c(OC)cccc1OC (stereo not drawn) [Example 88, 6-butyl-5-(2,6-dimethoxyphenyl)-3-{5-[(dimethylamino) (4-fluorophenyl)methyl]-1,3,4-oxadiazol-2-yl}pyridine-2,4-diol]",0.01 to 10,–
"CCCCc1nc(O)c(-c2nnc(CN3C(=O)CNC3=O)o2)c(O)c1-c1c(OC)cccc1OC [Example 113, 3-({5-[6-butyl-5-(2,6-dimethoxyphenyl)-2,4-dihydroxypyridin-3-yl]-1,3,4-oxadiazol-2-yl}methyl) imidazolidine-2,4-dione]",10 to 100,–
"CCCCc1nc(O)c(-c2nnc(CC(=O)N3CCN(C)CC3)o2)c(O)c1-c1c(OC)cccc1OC [Example 185, 2-{5-[6-butyl-5-(2,6-dimethoxyphenyl)-2,4-dihydroxypyridin-3-yl]-1,3,4-oxadiazol-2-yl}-1-(4-methylpiperazin-1-yl)ethan-1-one]",–,EC50 (hAPJ cAMP EC50 Potency range (nM)): 10 to 100 nM
"CCCCc1nc(O)c(-c2nnc(Cn3ccnc3)o2)c(O)c1-c1c(OC)cccc1OC [Example 115, 6-butyl-5-(2,6-dimethoxyphenyl)-3-[5-(1H-imidazol-1-ylmethyl)-1,3,4-oxadiazol-2-yl]pyridine-2,4-diol]",10 to 100,–
"CCCCc1nc(O)c(-c2nnc(-c3cnccn3)o2)c(O)c1-c1c(OC)cccc1OC [Example 12, 6-butyl-5-(2,6-dimethoxyphenyl)-3-[5-(pyrazin-2-yl)-1,3,4-oxadiazol-2-yl]pyridine-2,4-diol]",100 to 300,–
"CCCCc1nc(O)c(-c2nnc(Cc3ccc(F)c(F)c3)o2)c(O)c1-c1cccc(COC)c1 [Example 146, 6-butyl-3-{5-[(3,4-difluorophenyl)methyl]-1,3,4-oxadiazol-2-yl}-5-[3-(methoxymethyl)phenyl]pyridine-2,4-diol]",10 to 100,–
"COCCOCc1nc(O)c(-c2nnc(Cc3ccc(Cl)cc3)o2)c(O)c1-c1c(OC)cccc1OC [Example 244, 3-{5-[(4-chlorophenyl)methyl]-1,3,4-oxadiazol-2-yl}-5-(2,6-dimethoxyphenyl)-6-[(2-methoxyethoxy)methyl]pyridine-2,4-diol]",–,EC50 [2]: 10 to 100 nM
"CCCCc1nc(O)c(-c2nnc(CC(=O)NCCc3ccc(S(N)(=O)=O)cc3)o2)c(O)c1-c1c(OC)cccc1OC [Example 257, 2-{5-[6-butyl-5-(2,6-dimethoxyphenyl)-2,4-dihydroxy-pyridin-3-yl]-1,3,4-oxadiazol-2-yl}-N-[2-(4-sulfamoylphenyl)ethyl]acetamide]",–,EC50 [2]: 0.01 to 10 nM
"CCCCc1[nH]c(=O)c(-c2nnc(Cc3csc(C)n3)o2)c(O)c1-c1cccc(C(C)C)c1 [Example 148, 6-butyl-4-hydroxy-3-{5-[(2-methyl-1,3-thiazol-4-yl)methyl]-1,3,4-oxadiazol-2-yl}-5-[3-(propan-2-yl)phenyl]-1,2-dihydropyridin-2-one]",0.01 to 10,–
"CCOCc1nc(O)c(-c2nnc(Cn3ncc4ccccc43)o2)c(O)c1-c1c(OC)cccc1OC [Example 134, 5-(2,6-dimethoxyphenyl)-6-(ethoxymethyl)-3-[5-(1H-indazol-1-ylmethyl)-1,3,4-oxadiazol-2-yl]pyridine-2,4-diol]",0.01 to 10,–
"CCCCc1nc(O)c(-c2nnc(CN3C(=O)CN(C)C3=O)o2)c(O)c1-c1c(OC)cccc1OC [Example 98, 3-({5-[6-butyl-5-(2,6-dimethoxyphenyl)-2,4-dihydroxypyridin-3-yl]-1,3,4-oxadiazol-2-yl}methyl)-1-methyl-imidazolidine-2,4-dione]",0.01 to 10,–
"CCCCc1[nH]c(=O)c(-c2nnc(Cc3csc(C)n3)o2)c(O)c1-c1cccc(C(=O)NC(C)C)c1 [Example 149, 3-(2-butyl-4-hydroxy-5-{5-[(2-methyl-1,3-thiazol-4-yl)methyl]-1,3,4-oxadiazol-2-yl}-6-oxo-1,6-dihydropyridin-3-yl)-N-(propan-2-yl)benzamide]",0.01 to 10,–
"COc1cccc(OC)c1-c1c(C2CCCC2)[nH]c(=O)c(-c2nnc(Cc3ccc(Cl)cc3)o2)c1O [Example 239, 3-{5-[(4-chlorophenyl)methyl]-1,3,4-oxadiazol-2-yl}-6-cyclopentyl-5-(2,6-dimethoxyphenyl) pyridine-2,4-diol]",–,EC50 [2]: 0.01 to 10 nM

# Further lines, with some results ahead:
EC50 [1] [nM],Compound,also measured
10 to 100,"CCCCc1nc(O)c(-c2nc(Cc3ccc(Cl)cc3)no2)c(O)c1-c1c(OC)cccc1OC [Example 203, 6-butyl-3-{3-[(4-chlorophenyl)methyl]-1,2,4-oxadiazol-5-yl}-5-(2,6-dimethoxyphenyl) pyridine-2,4-diol]",–
0.01 to 10,"CCCCc1nc(O)c(-c2nnc(CNC(=O)c3cccc(Cl)c3)o2)c(O)c1-c1c(OC)cccc1OC [Example 162, N-({5-[6-butyl-5-(2,6-dimethoxyphenyl)-2,4-dihydroxypyridin-3-yl]-1,3,4-oxadiazol-2-yl}methyl)-3-chlorobenzamide]",–
0.01 to 10,"CCOCc1[nH]c(=O)c(-c2nnc(Cc3ccc(Cl)nc3)o2)c(O)c1-c1c(OC)cccc1OC [Example 110, 3-{5-[(6-chloropyridin-3-yl)methyl]-1,3,4-oxadiazol-2-yl}-5-(2,6-dimethoxyphenyl)-6-(ethoxymethyl) pyridine-2,4-diol]",–
100 to 300,CCCCc1nc(O)c(-c2nnc(Cc3cncs3)o2)c(O)c1-c1c(OC)cccc1OC [Example 49],–
0.01 to 10,"CCCCc1nc(O)c(-c2nnc(Cc3ccc(Cl)cc3Cl)o2)c(O)c1-c1c(OC)cccc1OC [Example 35, 6-butyl-3-{5-[(2,4-dichlorophenyl)methyl]-1,3,4-oxadiazol-2-yl}-5-(2,6-dimethoxyphenyl) pyridine-2,4-diol]",–
10 to 100,"CCCCc1nc(O)c(-c2nnc(CCc3ccc(Cl)c(Cl)c3)o2)c(O)c1-c1c(OC)cccc1OC [Example 85, 6-butyl-3-{5-[2-(3,4-dichlorophenyl)ethyl]-1,3,4-oxadiazol-2-yl}-5-(2,6-dimethoxyphenyl) pyridine-2,4-diol]",–
0.01 to 10,"C=CCCc1nc(O)c(-c2nnc(Cc3noc4ccccc34)o2)c(O)c1-c1c(OC)cccc1OC [Example 27, 3-[5-(1,2-benzoxazol-3-ylmethyl)-1,3,4-oxadiazol-2-yl]-6-(but-3-en-1-yl)-5-(2,6-dimethoxyphenyl) pyridine-2,4-diol]",–
0.01 to 10,"CCOCc1nc(O)c(-c2nnc(Cc3ccc(Cl)cc3)o2)c(O)c1-c1c(OC)cccc1OC [Example 90, 3-{5-[(4-chlorophenyl)methyl]-1,3,4-oxadiazol-2-yl}-5-(2,6-dimethoxyphenyl)-6-(ethoxymethyl) pyridine-2,4-diol]",–
